Results on six molecules are retold here after patent publication US11124523B2, “2,6-dioxaspiro [4,5] decane derivatives and preparation method therefor and pharmaceutical applications thereof” (SHANDONG LUYE PHARMACEUTICAL CO., LTD., priority 2017, dated 2021).

Data set [1] concerns the target T1, human μ-subtype opioid receptor (hMOR) (Homo sapiens (Human), UniProt P35372). The experiment in a line: MOR β-arrestin-2 agonist activity test. In kind it is cell-based. The note with it: for pEC50: >30000 nM = greater than the highest detection concentration, read-out: MOR β-arrestin-2 EC50; for Emax: maximum effect of enkephalin DAMGO was 100%, about 0% = no actual agonist activity. Here is the method: Test 2: β-Arrestin-2 Agonist Activity Test
2.1 Experimental Purpose: To test the β-arrestin-2 agonist activity of the compounds of the present disclosure on the human μ-subtype opioid receptor (hMOR).
a. All samples were dissolved in DMSO to a storage concentration of 10 mM.
(§1) b. A series of diluted samples were formulated on a 384-well LDV plate. A total of 11 concentration points were obtained by 3.162-fold gradient dilution.
c. The series of diluted samples were transferred to an experimental plate by using an Echo machine, wherein 60 nL of the compound was transferred corresponding to each well.
d. 60 nL of 3.33 mM DAMGO (as HPE) and 60 nL of DMSO (as ZPE) were transferred to the corresponding positions on the experimental plate by using the Echo machine.
The experiment was performed using PathHunter Detection Kit from DiscoveRX Cooperation (DiscoveRX #93-0213C3)
a. Assay buffer and PathHunter detection reagent required for the experiment were formulated.
Assay Buffer: 1×DPBS buffer
PathHunter Detection Reagent: The kit was provided therein with three constituents.
c. The experimental plate was centrifuged at 300 rpm for 30 s and incubated at room temperature for 2 hours.
d. 6 μL of the PathHunter detection reagent was added to each well of the experimental plate.
e. The experimental plate was centrifuged at 300 rpm for 30 seconds, then left at room temperature for 60 minutes, and then read on the Envision.

Data set [2] can be described thus: Metabolic stability in liver microsomes. The settings on record: pH 7.4; human liver microsomes 0.5 mg protein/mL; 45 mg microsome protein/g liver, 20 g liver/kg; read-out: Intrinsic Clearance CLint(liver) in Human Liver. The class given is in vitro ADME. The method, then:
Test 3: Metabolic Stability in Liver Microsomes
3.1 Experimental Purpose: To test the metabolic stability of the compounds of the present disclosure in human liver microsomes
a. All samples as well as testosterone, diclofenac and propafenone acting as reference substances were dissolved in DMSO to a storage concentration of 10 mM.
b. Intermediate Solution: 5 μL of the substance to be tested or the reference substance was diluted with 45 μL of DMSO (with 450 μL of 1:1 methanol/water).
c. Working Solution: the intermediate solution was diluted with 450 μL of 100 mM potassium phosphate buffer solution (pH 7.4).
Assay Buffer: 100 mM potassium phosphate buffer (pH 7.4) • 10 mM MgCl2
Liver Microsome Solution (final concentration: 0.5 mg protein/mL):
Human liver microsomes, obtained from BD, Cat No. 452117, Lot No. 38291
b. 10 μL of the working solution containing the substance to be tested or the reference substance was added to each of plates (T0, T5, T10, T20, T30, T60, NCF60).
c. The liver microsome solution was dispensed into a 96-well plate in an amount of 680 μL/well, then 80 was added, and then T was added to each of the plates. The above incubation plate was placed at 37° C. and pre-incubated for approximately 10 minutes.
d. 10 μL of 100 mM potassium phosphate buffer was added to each well in the NCF60 plate.
e. After the pre-incubation was finished, the NADPH regeneration system working solution was dispensed into the 96-well plate in an amount of 90 μL/well, and then added to each of the plates in an amount of 10 μL/well to start the reaction.
f. The plates were incubated for an appropriate time (e.g., 5, 10, 20, 30, or 60 minutes).
g. The stop solution (refrigerated at 4° C., containing 100 ng/mL Tolbutamide and 100 ng/mL Labetalol) was added to each sample well in an amount of 300 μL/well.
h. The sample plates were shaken well for about 10 minutes and centrifuged at 4,000 rpm for 20 minutes at 4° C. During the centrifugation, 300 μL of HPLC water was added to each well, and 100 μL of the supernatant was taken for LC-MS/MS analysis.
T1/2 and Clint(mic) were calculated by the following formula: […]
Each gram of liver contained 45 mg of microsome protein, and the liver weight was 20 g/kg in a human.
Ct was the concentration at time t, t was the incubation time, C0 was the concentration at time 0, Ke was an elimination rate constant, Clint(mic) was the intrinsic clearance in liver microsomes, and Clint(liver) was the intrinsic clearance in liver. CLint(mic)=0.693/half-life/mg of microsome protein per mL(concentration of microsomes during incubation) CLint(liver)=CLint(mic)×mg of microsome protein/g of liver weight×a ratio of liver weight to body weight 3.4 Test Results
In general terms: Microsomes from liver hold many membrane-bound enzymes, among them those of drug oxidation.

For data set [3], the target named is T1, human μ-subtype opioid receptor (hMOR). Nature of the data set: MOR cAMP agonist activity test. The class given is cell-based. The settings on record: for Emax: maximum effect of enkephalin DAMGO was 100%. The method, then: Test 1: MOR cAMP Agonist Activity Test
1.1 Experimental Purpose: To test the cAMP agonist activity of the compounds of the present disclosure on the human μ-subtype opioid receptor (hMOR).
a. Compound samples were dissolved in DMSO to a storage concentration of 10 mM.
as §1
c. The series of diluted samples were transferred to an experimental plate (Corning-3824) by using an Echo machine, wherein 30 nL was transferred corresponding to each well.
The experiment was performed using a cAMP detection kit from Cisbio (Cisbio #62AM4PEJ).
a. Assay buffer and stimulation buffer (STB) required for the experiment were formulated.
Stimulation Buffer: formulated with the assay buffer, containing 5 μM NKH477 (CAS: 138605-00-2) and 200 μM IBMX (3-isobutyl-1-methylxanthine)
b. […] The number of cells in the well was 10,000 cells/well.
c. The experimental plate was placed in a 37° C. constant-temperature incubator for incubation. The incubation was performed for 40 minutes.
d. A cAMP standard concentration curve was prepared. The first concentration point was at 2848 nM, and a total of sixteen detection concentrations were obtained by 4-fold gradient dilution. There were three replicates for each concentration point.
e. The cAMP detection kit from Cisbio was provided therein with a d2-labeled cAMP reagent (d2 reagent) and an Eu-labeled cAMP antibody reagent (Crypate reagent). The above two reagents were formulated according to the kit instructions, and then added to the sample experimental plate and to the cAMP standard concentration experimental plate, respectively. It was necessary to add 5 μL of the d2 reagent and then 5 μL of the Cryptate reagent to each well.
f. After the experimental plates were left at room temperature for 60 minutes, the experimental plates were read on the Envision.

The target of the next data set is CYP2C19 (Homo sapiens (Human), UniProt P33261). The experiment in a line: Inhibition of cytochrome P450 isoenzymes, CYP2C19. In kind it is in vitro ADME. The note with it: >50 μM: inhibitory effect less than 50% at 50 μM; read-out: CYP 2C19 IC50. The method, then:
(§2) 4.1 Experimental Purpose: To test the inhibitory effects of the compounds of the present disclosure on different isoforms of human cytochrome P450 isoenzymes
(§3) 1) The activities of CYP1A2, 2C9, 2C19, 2D6, and 3A4 were measured using a standard substrate method. In each reaction, the enzyme activities were measured in the presence and absence of the substance to be tested, wherein a single sample was measured at a total of eight test concentrations. A 5-in-1 mixed inhibitor was used.
(§4) 2) An incubation matrix comprising microsomes, a substrate, and an inhibitor or the compound to be tested was pre-incubated at 37° C. for 5 minutes, and then NADPH was added to start the reaction.
(§5) 3) After the incubation, acetonitrile with an internal standard was added to stop the reaction.
(§6) 4) Metabolites generated by the substrates were measured by using the LC-MS/MS method, and the peak area ratio of each metabolite to the internal standard was evaluated and the inhibition rate and IC50 were calculated.

For another data set, the target named is CYP2D6 (Homo sapiens (Human), UniProt P10635). The experiment in a line: Inhibition of cytochrome P450 isoenzymes, CYP2D6. The settings on record: read-out: CYP 2D6 IC50. In kind it is in vitro ADME. Here is the method:
as §2, §3, §4, §5, §6

A further data set has as its target CYP3A4 (Homo sapiens (Human), UniProt P08684). The experiment in a line: Inhibition of cytochrome P450 isoenzymes, CYP3A4. The class given is in vitro ADME. The settings on record: >50 μM: inhibitory effect less than 50% at 50 μM; read-out: CYP 3A4 IC50. The method, then: as §2, §3, §4, §5, §6
For a further data set, the target named is CYP2C9 (Homo sapiens (Human), UniProt P11712). The experiment in a line: Inhibition of cytochrome P450 isoenzymes, CYP2C9. The note with it: >50 μM: inhibitory effect less than 50% at 50 μM; read-out: CYP 2C9 IC50. In kind it is in vitro ADME. Here is the method:
as §2, §3, §4, §5, §6

For the next data set, the target named is hERG potassium channels (Homo sapiens (Human), UniProt Q12809). The experiment in a line: Effects on hERG potassium channels (Qpatch, CHO-hERG cells). The settings on record: highest test concentration 40 μM, read-out: IC50 representing the blocking effects of hERG potassium currents. The class given is cell-based. Here is the method: 5.1 Experimental Purpose: To test the blocking effects of the compounds of the present disclosure on hERG potassium currents.
Sequence of hERG potassium channels (Q12809 whole entry): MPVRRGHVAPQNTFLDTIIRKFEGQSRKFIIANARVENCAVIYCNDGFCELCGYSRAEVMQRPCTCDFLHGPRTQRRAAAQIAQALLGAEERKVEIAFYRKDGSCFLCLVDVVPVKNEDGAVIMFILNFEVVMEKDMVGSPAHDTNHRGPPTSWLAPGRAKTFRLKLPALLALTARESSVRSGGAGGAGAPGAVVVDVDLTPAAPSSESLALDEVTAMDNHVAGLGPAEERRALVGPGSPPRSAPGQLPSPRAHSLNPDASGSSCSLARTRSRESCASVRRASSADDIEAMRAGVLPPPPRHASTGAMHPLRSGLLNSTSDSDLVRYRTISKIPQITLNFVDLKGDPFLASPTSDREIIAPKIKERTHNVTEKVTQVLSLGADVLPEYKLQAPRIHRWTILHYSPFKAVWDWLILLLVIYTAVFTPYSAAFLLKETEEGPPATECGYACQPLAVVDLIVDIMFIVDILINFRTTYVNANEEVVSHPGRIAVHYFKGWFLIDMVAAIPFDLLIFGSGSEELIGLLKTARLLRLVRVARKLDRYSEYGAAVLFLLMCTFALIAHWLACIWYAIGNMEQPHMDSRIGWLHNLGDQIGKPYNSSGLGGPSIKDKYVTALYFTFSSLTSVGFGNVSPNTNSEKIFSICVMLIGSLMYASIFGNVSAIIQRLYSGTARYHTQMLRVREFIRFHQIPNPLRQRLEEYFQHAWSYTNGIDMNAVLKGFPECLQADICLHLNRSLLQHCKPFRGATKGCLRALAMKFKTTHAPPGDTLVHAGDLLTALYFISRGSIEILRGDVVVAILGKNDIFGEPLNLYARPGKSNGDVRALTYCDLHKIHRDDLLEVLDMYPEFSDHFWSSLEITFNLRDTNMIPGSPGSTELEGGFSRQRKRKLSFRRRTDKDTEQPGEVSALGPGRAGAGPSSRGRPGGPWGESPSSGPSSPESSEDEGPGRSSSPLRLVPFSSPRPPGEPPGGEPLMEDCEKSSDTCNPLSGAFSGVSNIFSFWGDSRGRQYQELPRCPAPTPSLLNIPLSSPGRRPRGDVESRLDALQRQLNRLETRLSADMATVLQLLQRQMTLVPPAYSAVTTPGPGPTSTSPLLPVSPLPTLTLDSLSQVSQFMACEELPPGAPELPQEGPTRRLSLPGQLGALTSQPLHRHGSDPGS
a. CHO-hERG cells were cultured in a 175 cm^2 culture flask. When the cells were grown to a density of 60 to 80%, the culture solution was removed, and the cells were washed once with 7 mL of PBS (phosphate buffer solution), and then 3 mL of a cell digestion solution (Detachin) was added for digestion of the cells.
b. After completely digested, the cells were neutralized by adding 7 mL of the culture solution and then centrifuged, the supernatant was removed, and then 5 mL of the culture solution was added for resuspension to ensure a cell density of 2 to 5×10^6 cells/mL.
The single-cell high-impedance sealing and whole-cell pattern formation processes were both carried out automatically by the Qpatch instrument. After the whole-cell recording pattern was obtained, the cells were clamped at −80 millivolts. A preceding voltage of −50 millivolts was applied for 50 milliseconds prior to application of a depolarizing stimulus of +40 millivolts for 5 seconds, and then the cells were repolarized to −50 millivolts and maintained for 5 seconds and then returned back to −80 millivolts. This voltage stimulation was applied every 15 seconds, and data were recorded for 2 minutes, and thereafter the extracellular fluid was administered and data were recorded for 5 minutes, and then the administration process was started. The compound was administered for 2.5 minutes at each test concentration from the lowest test concentration. After all the concentrations of the compound were administered, […] of Cisapride was administered as a positive comparative compound. At least three cells (n>3) were tested for each concentration.
a. A 20 mM compound mother solution was diluted with the extracellular fluid, wherein 5 μL of the 20 mM compound mother solution was taken and diluted 500 times to 40 μM by adding 2495 μL of the extracellular fluid thereto, and then 3-fold serial dilutions were performed sequentially in the extracellular fluid containing 0.2% DMSO to obtain a final concentration to be tested.
b. The highest test concentration was 40 μM, and there were six concentrations in total, i.e., 40, 13.33, 4.44, 1.48, 0.49, and 0.16 μM, respectively.
c. The DMSO content in the final test concentration was not more than 0.2%. This concentration of DMSO had no effect on the hERG potassium channel.
The experimental data were analyzed by XLFit software.
In general terms: hERG is a cardiac potassium channel; its block is linked to QT prolongation.

pEC50, pIC50: −log10 of the molar value. Structures can show the parent of a compound that is named as a salt.

Sequence of CYP2C19 (P33261 whole entry, canonical isoform): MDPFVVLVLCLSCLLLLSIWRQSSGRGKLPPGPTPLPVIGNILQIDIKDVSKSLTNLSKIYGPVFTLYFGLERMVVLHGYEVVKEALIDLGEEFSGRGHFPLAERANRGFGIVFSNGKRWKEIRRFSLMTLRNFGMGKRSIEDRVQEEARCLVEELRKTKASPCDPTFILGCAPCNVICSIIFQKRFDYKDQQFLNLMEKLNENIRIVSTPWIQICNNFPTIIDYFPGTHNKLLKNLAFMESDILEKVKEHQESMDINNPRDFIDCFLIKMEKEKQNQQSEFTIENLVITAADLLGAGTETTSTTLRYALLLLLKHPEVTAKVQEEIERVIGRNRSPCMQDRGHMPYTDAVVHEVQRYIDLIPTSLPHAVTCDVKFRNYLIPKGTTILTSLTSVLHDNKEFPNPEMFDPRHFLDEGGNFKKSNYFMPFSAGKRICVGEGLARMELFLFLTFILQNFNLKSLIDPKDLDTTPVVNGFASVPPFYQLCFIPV
Sequence of CYP2D6 (P10635 whole entry): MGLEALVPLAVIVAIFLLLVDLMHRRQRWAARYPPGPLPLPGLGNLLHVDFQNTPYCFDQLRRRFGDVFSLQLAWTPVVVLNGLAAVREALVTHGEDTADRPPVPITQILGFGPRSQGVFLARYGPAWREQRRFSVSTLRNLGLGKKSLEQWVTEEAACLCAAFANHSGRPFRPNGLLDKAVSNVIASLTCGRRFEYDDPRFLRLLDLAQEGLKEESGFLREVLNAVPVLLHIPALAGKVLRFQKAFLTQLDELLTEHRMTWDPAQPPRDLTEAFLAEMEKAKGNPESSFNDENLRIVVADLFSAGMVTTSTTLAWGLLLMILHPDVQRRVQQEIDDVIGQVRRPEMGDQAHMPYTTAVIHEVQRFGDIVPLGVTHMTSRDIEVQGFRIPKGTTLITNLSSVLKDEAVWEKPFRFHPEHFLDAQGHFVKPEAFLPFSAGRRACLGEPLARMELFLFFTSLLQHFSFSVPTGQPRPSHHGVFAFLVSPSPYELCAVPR
Sequence of CYP2C9 (P11712 whole entry): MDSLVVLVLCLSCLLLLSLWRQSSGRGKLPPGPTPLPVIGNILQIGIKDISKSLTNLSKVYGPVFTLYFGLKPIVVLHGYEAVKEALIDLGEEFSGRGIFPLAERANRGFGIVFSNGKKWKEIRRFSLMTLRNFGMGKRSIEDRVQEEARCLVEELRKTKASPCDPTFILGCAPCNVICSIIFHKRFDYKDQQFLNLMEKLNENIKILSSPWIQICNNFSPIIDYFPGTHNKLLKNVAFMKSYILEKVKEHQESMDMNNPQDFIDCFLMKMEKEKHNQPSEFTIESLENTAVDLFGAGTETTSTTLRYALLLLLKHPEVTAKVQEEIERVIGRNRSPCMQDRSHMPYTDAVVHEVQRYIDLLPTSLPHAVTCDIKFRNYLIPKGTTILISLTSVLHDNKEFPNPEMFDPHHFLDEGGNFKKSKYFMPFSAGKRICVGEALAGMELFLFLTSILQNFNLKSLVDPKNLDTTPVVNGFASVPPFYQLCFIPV
Sequence of CYP3A4 (P08684 whole entry): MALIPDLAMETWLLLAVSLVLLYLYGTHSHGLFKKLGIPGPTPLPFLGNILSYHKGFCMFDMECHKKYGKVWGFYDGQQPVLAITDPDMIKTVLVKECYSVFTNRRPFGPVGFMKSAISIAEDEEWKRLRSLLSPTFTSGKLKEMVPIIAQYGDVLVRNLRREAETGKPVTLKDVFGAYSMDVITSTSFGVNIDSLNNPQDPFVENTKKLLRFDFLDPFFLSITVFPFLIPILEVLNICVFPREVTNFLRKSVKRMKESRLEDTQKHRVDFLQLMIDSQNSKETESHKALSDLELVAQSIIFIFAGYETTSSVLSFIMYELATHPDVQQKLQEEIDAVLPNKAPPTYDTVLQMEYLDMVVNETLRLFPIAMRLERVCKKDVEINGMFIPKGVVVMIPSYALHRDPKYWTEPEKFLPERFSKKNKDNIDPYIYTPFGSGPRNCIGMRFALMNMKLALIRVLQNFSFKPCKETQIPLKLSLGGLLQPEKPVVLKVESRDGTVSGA

`Fc1ccnc([C@]2(CCNCc3scc4c3CCC4)CCO[C@]3(CCOC3)C2)c1` [(+)-6]: in data set [1], the negative logarithm of the EC50 (pEC50) was below 4.52 and the Emax is around 0%. The CLint scaled in data set [2] was 86 mL/min/kg. Also, in data set [3], the pEC50 was 8.74 and the Emax turned out to be 86.5%.

On to `Clc1cccc(CNCC[C@@]2(c3ccccn3)CCO[C@]3(CCOC3)C2)c1` [(+)-8], for which the pEC50 is below 4.52 in data set [1] and 8.74 in data set [3]. The Emax in data set [1] is around 0%; in data set [3] it was 85.3%. For the same molecule, the negative logarithm of the IC50 (pIC50) is below 4.30 at CYP2C19, 4.76 on CYP2D6, below 4.30 at CYP3A4 and below 4.30 at CYP2C9. In addition, the CLint scaled in data set [2] was found to be 10 mL/min/kg.

`Cc1cccc(CNCC[C@@]2(c3ccccn3)CCO[C@]3(CCOC3)C2)c1` [(+)-9]: the negative logarithm of the EC50 (pEC50) was below 4.52 in data set [1] and 8.21 in data set [3]. The figures for the Emax in data set [1] and in data set [3] were around 0% and 88.9%, respectively. In addition, the negative-log IC50 (pIC50) at CYP2C19 was below 4.30; at CYP2D6 it was 4.63; at CYP3A4, 4.66; on CYP2C9, below 4.30. Moreover, the CLint scaled in data set [2] was 8.8 mL/min/kg.

For `c1ccc([C@]2(CCNCc3cccc4c3CCCC4)CCO[C@]3(CCOC3)C2)nc1` [(+)-11], the pEC50 in data set [1] was below 4.52; in data set [3] it was 8.85. Further, the Emax was around 0% in data set [1] and 87.2% in data set [3]. For the same molecule, the CLint scaled in data set [2] was 72.5 mL/min/kg.

On to `Fc1cc(Cl)cc(CNCC[C@@]2(c3ccccn3)CCO[C@]3(CCOC3)C2)c1` [(+)-18], for which the pEC50 in data set [1] is below 4.52; in data set [3] it was 8.38. For the same molecule, the Emax was around 0% in data set [1] and 87.7% in data set [3]. Besides, the pIC50 is below 4.30 on CYP2C19, 4.61 at CYP2D6, below 4.30 on CYP3A4 and below 4.30 on CYP2C9. Besides, the CLint scaled in data set [2] is 84.9 mL/min/kg.

As to `Fc1ccc([C@]2(CCNCc3cccc(Cl)c3)CCO[C@]3(CCOC3)C2)nc1` [Hydrochloride Salt of (+)-16], the pIC50 on hERG potassium channels was 4.64.

Usually pEC50 stands for the negative decadic logarithm of the EC50, by convention in mol/L. By Emax is commonly meant the size of the effect at its maximum, as opposed to the concentration needed. Usually pIC50 stands for the IC50 on a negative log10 scale, so that one unit is a factor of ten.
